These results are taken from patent US5420335A, “Parenteral nutrients based on watersoluble glycerol bisacetoacetates” (priority 1993, dated 1995).

For experiment [1] the following is noted: in words; cited from earlier work.
A short description of experiment [2]: Overall evaluation as a parenteral nutrient. Format: in vivo, rat (male Sprague-Dawley). The note with it: in words. As to the method: Water was available ad libitum at all times.
The vein was then ligated dorsally to the catheter. […] Body weights were measured daily.
Infusate volume, oral food intake, body weight and urinary volume and total nitrogen were monitored daily for each rat. Infusate volume and food intake were determined by weighing the appropriate container at the start and end of each 24 hr. period. Measurements were recorded between 9 and 10 AM each day. At the end of the 7th day, rats were sacrificed, and blood and liver were harvested. Plasma was separated for measurement of free fatty acids, glucose, and ketone bodies. Liver was weighed and a sample was fixed in buffered formalin for gross histology.
The data were analyzed for significance by the one-way analysis of variance with repeated measures and comparing the effect of dietary treatment on each day. […] The null hypothesis was concluded invalid if p≤0.05. The analysis of variance was computed on a SAS statistical package.

Turning to `CC(=O)OCC1COC(C)(C)O1` (stereo not shown) [2,3-isopropylidene-1-acetate], the “enhance the absorption of certain agents in the intestine” value (“enhance the absorption” for short) in experiment [1] is “enhance the absorption of certain agents in the intestine”. Take “Partially Reduced Pentaacetoacetyl-glucose [Compound 3]”: the “efficacy as parenteral nutrient / energy source” value in experiment [2] was “ineffective as parenteral nutrients”. On to `CC(=O)CC(=O)OCC1COC(C)(C)O1` (stereo not shown) [1,2-isopropylideneglyceryl 3-acetoacetate], for which the “enhance the absorption” value in experiment [1] was “enhance the absorption of certain agents in the intestine”. `CC(=O)CC(=O)OCC(O)COC(=O)CC(C)=O` [1,3-bisacetoacetylglycerol]: the “enhance the absorption” value in experiment [1] is given as “enhance the absorption of certain agents in the intestine”.
